# Measurements: patent US9834514B2, “Antibiotic sensitivity-restoring and photosensitive agents” (New Mexico Tech Research Foundation, priority 2015, dated 2017)
# Test system: P. aeruginosa
# Experiment: Resensitization to antibiotics (log reduction, TABLE 29)
# Assay type: cell-based
# Settings: compound 20 μM
compound,measurement,setting,value
Clc1ccc(/C=C/c2[nH]c3ccccc3c2/C=C/c2ccc(Cl)cc2)cc1 [Compound 1],Log Reduction,PME (0.1 μg/mL),2
same,Log Reduction,PME (0.1 μg/mL) + Light (2 min),8
